Columns and labels:
[1] = tested on: A549 (human non-small-cell lung cancer); assay: MTT cytotoxicity assay, A549; type: cell-based; conditions: Homo sapiens, A549, 72 h treatment, read-out: Half Maximal Inhibitory Concentration (IC50) A549
In short: (§1)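 Cells seeded at 3 × 10^3/well in DMEM/10% FBS, then treated 72 h with 3.125–50 μM compound in DMSO. MTT (5 mg/mL) added for 4 h, formazan dissolved in DMSO, absorbance read at 490 nm; inhibition relative to untreated control, IC50 as 50% growth inhibition, triplicate runs.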

[2] = tested on: MCF-7 (human mammary cancer); assay: MTT cytotoxicity assay, MCF-7; type: cell-based; conditions: Homo sapiens, MCF7, 72 h treatment, read-out: Half Maximal Inhibitory Concentration (IC50) MCF-7
In short: as §1

[3] = tested on: HepG2 (human hepatocellular carcinoma); assay: MTT cytotoxicity assay, HepG2; type: cell-based; conditions: Homo sapiens, HepG2; MTT, 72 h treatment; read-out: Half Maximal Inhibitory Concentration (IC50) HepG2
In short: as §1

[4] = tested on: H9c2 (murine heart myoblast); assay: MTT toxicity evaluation, H9c2; type: cell-based; conditions: H9c2, 72 h treatment, non-tumor cells, read-out: Half Maximal Inhibitory Concentration (IC50) H9c2
In short: as §1

A549 cells [5] = assay: Cell-cycle analysis by PI staining, flow cytometry; type: cell-based, human; conditions: 72 h
Experimental: The remarkable activity of compound 9 against the A549 cell line prompted us to investigate its effect on the cell cycle of A549 by flow cytometry.
According to instructions, A549 cells were stained with the Cell Cycle and Apoptosis Analysis Kit (Beyotime Biotechnology, Shanghai, China). A549 cells in the logarithmic growth phase were seeded in six-well plates (4.8 × 10^4 cells/well). After incubation for 24 h at 37 °C with 5% CO2, various concentrations (0, 2, 5, or 10 μM) of compound 9 were added to the cultures, and the plate was incubated for a further 72 h. A549 cells were collected, washed twice with cold PBS, and centrifuged at 2400 rpm for 10 min. The resulting pellet was mixed with 1 mL of 70% ethanol, and retained for 12 h at 4 °C, before being centrifuged at 2400 rpm for 10 min. The supernatant was discarded, and the resulting pellet was mixed with 1mL of cold PBS and centrifuged at 2400 rpm for 10 min. Then, 0.5 mL of PI staining solution was added and mixed gently. After incubation at 37 °C for 30 min, the cells were immediately analyzed with a flow cytometer at 488 nm.

A549 cells [6] = assay: DAPI staining, nuclear morphology; type: cell-based, human; conditions: 6 μM, 72 h
Experimental: As pictured in Figure 6, in the control group, the nucleus was intact and evenly colored. […] When the concentration of the drug increased, nuclear condensation, nuclear fragmentation, and the formation of apoptotic bodies appeared.
A549 cells in the logarithmic growth phase were seeded in 12-well plates (1.2 × 10^4 cells/well). After incubation for 24 h at 37 °C with 5% CO2, various concentrations (0, 2, 4, or 6 μM) of compound 9 were added to the cultures, and the plate was incubated for further 72 h. Then, we discarded the cell culture fluid, washed twice with PBS, and fixed the cells with 4% paraformaldehyde for 10 min. After that, we added the appropriate amount of DAPI (1 mg/mL; Molecular Probes/Invitrogen Life Technologies, Carlsbad, CA, USA) to cover the bottom of the board, after staining for 5 min in the dark.

Cc1cncc(C(=O)OCCOC(=O)[C@]23CCC(C)(C)CC2C2=CCC4[C@@]5(C)CC[C@H](O)[C@@](C)(CO)C5CC[C@@]4(C)[C@]2(C)CC3)n1 (stereo partly drawn) [Compound 9, 2-(((4aS,6aS,6bR,9R,10S,12aR)-10-Hydroxy-9-(hydroxymethyl)-2,2,6a,6b,9,12a-hexamethyl-1,2,3,4,4a,5,6,6a,6b,7,8,8a,9,10,11,12,12a,12b,13,14b-icosahydropicene-4a-carbonyl)oxy)ethyl-6-methylpyrazine-2-carboxylate]
IC50 [1]: 3.45 ± 0.59 µM
IC50 [2]: 8.73 ± 1.49 µM
IC50 [3]: 8.71 ± 0.38 µM
IC50 [4]: 16.69 ± 0.12 µM
cells in G1 phase (A549 cells [5]; 2 μM): 57.46%
cells in G2 phase (A549 cells [5]; 2 μM): 8.37%
cells in S phase (A549 cells [5]; 2 μM): 34.17%
cells in G1 phase (A549 cells [5]; 5 μM): 53.44%
cells in G2 phase (A549 cells [5]; 5 μM): 0.00%
cells in S phase (A549 cells [5]; 5 μM): 46.56%
cells in G1 phase (A549 cells [5]; 10 μM): 39.54%
cells in G2 phase (A549 cells [5]; 10 μM): 0.00%
cells in S phase (A549 cells [5]; 10 μM): 60.46%
nuclear morphology, DAPI staining (A549 cells [6]): the number of cells decreased drastically, the shape of the cells became irregular, and nuclear fragmentation occurred
